Results reported in patent US9062004B2, “Cannabinoid-2 agonists” (Allergan, Inc., priority 2010, dated 2015).

Experiments:
[1] = test system: mouse isolated vas deferens; assay: Mouse isolated vas deferens (MVD) bioassay, electrically stimulated contractions; assay type: cell-based; details: vas deferens of male Swiss Webster mice, electrically evoked contractions, NA = not active; for EC50: Mus musculus, read-out: MVD Assay EC50
[2] = molecular target: human CB2 cannabinoid receptor (Homo sapiens (Human), UniProt P34972); assay: Radioligand binding assay, CB2 ([3H]-CP 55,940 competition); details: for IC50: plasma membranes of HEK 293 EBNA cells transfected with human CB2, 0.72 nM [3H]-CP 55,940, NA = not active; for CB2 Selectivity: CB2 versus CB1 binding (ratio of CB1 IC50 to CB2 IC50)
Method: (§1) A. Radioligand Binding Assay
(§2) Plasma membranes prepared from HEK 293 EBNA cells transfected with human CB1 or CB2 cannabinoid receptors ([…] protein, receptor concentration; PerkinElmer) were used for the radioligand binding studies. The composition of incubation buffer for CB1 assay was 50 mM Tris base, 2.5 mM EDTA, 5 mM MgCl2 and 0.5 mg/ml fatty acid free BSA and for CB2 assay was 50 mM Tris base, 2.5 mM EGTA, 5 mM MgCl2 and 1 mg/ml fatty acid free BSA; pH was adjusted to 7.4 by adding 1N HCl. Plasma membranes were diluted with incubation buffer to provide a final protein concentration of 2.4 μg (CB1) or 8 μg (CB2) per well in non-binding surface polystyrene 96-well assay plates (Corning). Compound solutions were prepared in silanized glass tubes and dispensed using pipette tips with SUPERSLIK™ surface. Competition studies were performed using a final concentration of 0.72 nM [^3H]-CP 55,940 (100-180 Ci/mmol, specific activity; PerkinElmer) against test compounds. Non-specific binding was determined using 10 uM of unlabeled CP 55,940. Incubations were performed in 96-well assay plates at a final volume of 200 ul for 90 min (CB1) or 60 min (CB2) at room temperature. Binding reactions were terminated by the addition of ice-cold incubation buffer and rapid filtration through a glass fiber filter using a cell harvester (Inotech). This was followed by 8 additional washes. The glass fiber filter (0.26 mm thickness, 1-1.5 um retention; Inotech) was presoaked in cold incubation buffer containing 0.05% polyethylenimine. The filters were oven-dried at 50° C. for 60 min and counting performed using a Beckman Coulter LS 6500 Multi-Purpose Scintillation Counter (Beckman-Coulter). Binding was determined in duplicate for at least 4 separate experiments.

[3] = molecular target: human CB1 cannabinoid receptor (Homo sapiens (Human), UniProt P21554); assay: Radioligand binding assay, CB1 ([3H]-CP 55,940 competition); details: plasma membranes of HEK 293 EBNA cells transfected with human CB1; 0.72 nM [3H]-CP 55,940; NA = not active
Method: as §1, §2

human CB2 cannabinoid receptor, sequence (P34972 whole entry): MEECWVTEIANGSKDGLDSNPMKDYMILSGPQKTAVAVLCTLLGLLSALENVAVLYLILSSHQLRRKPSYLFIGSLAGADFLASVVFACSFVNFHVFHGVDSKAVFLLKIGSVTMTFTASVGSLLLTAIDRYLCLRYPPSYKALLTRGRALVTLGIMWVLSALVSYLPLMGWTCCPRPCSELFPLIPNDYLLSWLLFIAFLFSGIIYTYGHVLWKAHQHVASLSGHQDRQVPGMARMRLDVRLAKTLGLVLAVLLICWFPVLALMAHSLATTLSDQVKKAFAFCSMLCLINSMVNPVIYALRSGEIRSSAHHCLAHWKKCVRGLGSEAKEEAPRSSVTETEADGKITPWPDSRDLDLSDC
human CB1 cannabinoid receptor, sequence (P21554 whole entry): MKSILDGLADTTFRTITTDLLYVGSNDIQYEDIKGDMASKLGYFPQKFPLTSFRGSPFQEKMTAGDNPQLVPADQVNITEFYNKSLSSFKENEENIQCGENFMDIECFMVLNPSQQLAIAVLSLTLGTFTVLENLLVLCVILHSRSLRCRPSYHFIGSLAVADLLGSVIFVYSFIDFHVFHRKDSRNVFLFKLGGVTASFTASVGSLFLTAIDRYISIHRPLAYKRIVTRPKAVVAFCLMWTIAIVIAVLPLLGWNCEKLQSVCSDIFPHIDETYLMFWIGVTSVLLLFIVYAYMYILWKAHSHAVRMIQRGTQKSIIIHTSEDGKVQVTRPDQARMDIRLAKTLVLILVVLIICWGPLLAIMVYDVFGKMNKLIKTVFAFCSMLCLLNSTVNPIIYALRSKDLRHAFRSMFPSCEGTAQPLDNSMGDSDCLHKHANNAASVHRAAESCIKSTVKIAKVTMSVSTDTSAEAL

Row | SMILES | EC50 [1] [nM] | IC50 [2] [nM] | CB2 Selectivity [2] | IC50 [3] [nM] | MVD assay qualitative outcome [1]
1 | CC1(C)CC(n2ncc(O)cc2=O)CC(C)(C)C1 [Compound 1, 5-hydroxy-2-(3,3,5,5-tetramethyl-cyclohexyl)pyridazin-3-one] | 3700 | 1820 | – | – | –
2 | CC1(C)CC(n2ncc(Cl)c(Cl)c2=O)CC(C)(C)C1 [Compound 2, 4,5-Dichloro-2-(3,3,5,5-tetramethyl-cyclohexyl)pyridazin-3-one] | > 10000 | 389 | >26 | > 10000 | –
3 | CNc1cnn(C2CC(C)(C)CC(C)(C)C2)c(=O)c1Cl [Compound 3, 4-Chloro-5-methylamino-2-(3,3,5,5-tetramethylcyclohexyl)pyridazin-3-one] | 2900 | 355 | >28 | > 10000 | –
4 | CN(C)c1cnn(C2CC(C)(C)CC(C)(C)C2)c(=O)c1Cl [Compound 4, 4-Chloro-5-dimethylamino-2-(3,3,5,5-tetramethylcyclohexyl) pyridazin-3-one] | 82 | 17 | 60 | 1020 | –
5 | CCCNc1cnn(C2CC(C)(C)CC(C)(C)C2)c(=O)c1Cl [Compound 5, 4-Chloro-5-propylamino--2-(3,3,5,5-tetramethylcyclohexyl)pyridazin-3-one] | 30 | 5.4 | 189 | 1020 | –
6 | CNc1cnn(C2CC(C)(C)CC(C)(C)C2)c(=O)c1 [Compound 6, 5-Methylamino-2-(3,3,5,5-tetramethyl-cyclohexyl)pyridazin-3-one] | 10000 | 2090 | >5 | > 10000 | –
7 | CN(C)c1cnn(C2CC(C)(C)CC(C)(C)C2)c(=O)c1 [Compound 7, 5-Dimethylamino-2-(3,3,5,5-tetramethylcyclohexyl)pyridazin-3-one] | 2500 | 380 | >26 | > 10000 | –
8 | CCCNc1cnn(C2CC(C)(C)CC(C)(C)C2)c(=O)c1 [Compound 8, 5-Propylamino-2-(3,3,5,5-tetramethyl-cyclohexyl)pyridazin-3-one] | 440 | 68 | >147 | > 10000 | –
9 | CCCNc1cnn(-c2ccccc2)c(=O)c1Cl [Compound 9, 4-Chloro-2-phenyl-5-propylamino-pyridazin-3-one] | > 10000 | > 10000 | – | – | –
10 | CCCNc1cnn(C2CCCCC2)c(=O)c1Cl [Compound 10, 4-Chloro-2-cyclohexyl-5-propylaminopyridazin-3-one] | > 10000 | 10000 | – | – | –
11 | CCCNc1cnn(-c2cc(C)cc(C)c2)c(=O)c1Cl [Compound 16, 4-Chloro-2-(3,5-dimethylphenyl)-5-propylaminopyridazin-3-one] | > 10000 | 10000 | – | > 10000 | –
12 | Cc1cc(C)cc(-n2ncc(N(C)C)c(Cl)c2=O)c1 [Compound 17, 4-Chloro-5-dimethylamino-2-(3,5-dimethylphenyl)-pyridazin-3-one] | – | > 10000 | – | – | –
13 | CCCNc1cnn(-c2cc(C(F)(F)F)cc(C(F)(F)F)c2)c(=O)c1Cl [Compound 20, 2-(3,5-Bistrifluoromethylphenyl)-4-chloro-5-propylamino-pyridazin-3-one] | > 10000 | > 10000 | – | > 10000 | –
14 | CN(C)c1cnn(-c2cc(C(F)(F)F)cc(C(F)(F)F)c2)c(=O)c1Cl [Compound 21, 2-(3,5-Bistrifluoromethylphenyl)-4-chloro-5-dimethylaminopyridazin-3-one] | > 10000 | > 10000 | – | – | –
15 | CN(C)CCNc1cnn(-c2cc(C(F)(F)F)cc(C(F)(F)F)c2)c(=O)c1Cl [Compound 23, 2-(3,5-Bistrifluoromethylphenyl)-4-chloro-5-(2-dimethylaminoethylamino)pyridazin-3-one] | – | – | – | – | Increase
16 | CCCNc1cnn(C(C)(C)C)c(=O)c1Cl [Compound 24, 2-t-Butyl-4-chloro-5-propylamino-pyridazin-3-one] | > 10000 | > 10000 | – | – | –
17 | CCCNc1cnn(-c2cc(Cl)cc(Cl)c2)c(=O)c1Cl [Compound 25, 4-Chloro-2-(3,5-dichlorophenyl)-5-propylaminopyridazin-3-one] | > 10000 | > 10000 | – | > 10000 | –
18 | CC(C)(C)n1ncc(NCCN2CCOCC2)c(Cl)c1=O [Compound 27, 2-t-Butyl-4-chloro-5-(2-morpholin-4-ylethylamino)-pyridazin-3-one] | > 10000 | > 10000 | – | – | –
19 | CCN(CC)CCNc1cnn(C2CC(C)(C)CC(C)(C)C2)c(=O)c1Cl [Compound 32, 4-Chloro-5-(2-diethylaminoethylamino)-2-(3,3,5,5-tetramethyl-cyclohexyl)pyridazin-3-one] | 10000 | 1290 | – | – | –

More lines, main results first:

Row | EC50 [1] [nM] | IC50 [2] [nM] | CB2 Selectivity [2] | SMILES | IC50 [3] [nM] | MVD assay qualitative outcome [1]
20 | 320 | 83 | 48 | CC1(C)CC(n2ncc(NCCN3CCOCC3)c(Cl)c2=O)CC(C)(C)C1 [Compound 11, 4-Chloro-5-(2-morpholin-4-ylethyl-amino)-2-(3,3,5,5-tetramethyl-cyclohexyl)pyridazin-3-one] | 3980 | –
21 | 2900 | 204 | >49 | CN(C)CCNc1cnn(C2CC(C)(C)CC(C)(C)C2)c(=O)c1Cl [Compound 12, 4-Chloro-5-(2-dimethylaminoethylamino)-2-(3,3,5,5-tetramethyl-cyclohexyl)pyridazin-3-one] | > 10000 | –
22 | 21 | 4.8 | 36 | CCCNc1cnn(C2CC(C)(C)CC(C)(C)C2)c(=O)c1Br [Compound 13, 4-Bromo-5-propylamino--2-(3,3,5,5-tetramethylcyclohexyl)pyridazin-3-one] | 174 | –
23 | 820 | 42 | 177 | CN(C)CCNc1cnn(C2CC(C)(C)CC(C)(C)C2)c(=O)c1Br [Compound 14, 4-Bromo-5-(2-dimethylaminoethylamino)-2-(3,3,5,5-tetramethyl-cyclohexyl)pyridazin-3-one] | 7410 | –
24 | 86 | 22.4 | 83 | CC1(C)CC(n2ncc(NCCN3CCOCC3)c(Br)c2=O)CC(C)(C)C1 [Compound 15, 4-Bromo-5-(2-morpholin-4-ylethylamino)-2-(3,3,5,5-tetramethyl-cyclohexyl)pyridazin-3-one] | 1860 | –
25 | ~10000 | > 10000 | – | Cc1cc(C)cc(-n2ncc(NCCN3CCOCC3)c(Cl)c2=O)c1 [Compound 18, 4-Chloro-2-(3,5-dimethylphenyl)-5-(2-morpholin-4-ylethylamino)-pyridazin-3-one] | > 10000 | –
26 | > 10000 | > 10000 | – | O=c1c(Cl)c(NCCN2CCOCC2)cnn1-c1cc(C(F)(F)F)cc(C(F)(F)F)c1 [Compound 22, 2-(3,5-Bistrifluoromethylphenyl)-4-chloro-5-(2-morpholin-4-ylethyl-amino)pyridazin-3-one] | – | –
27 | > 10000 | 10000 | – | CCCNc1cnn(-c2cc(C)ccc2C)c(=O)c1Cl [Compound 26, 4-Chloro-2-(2,5-dimethylphenyl)-5-propylaminopyridazin-3-one] | – | –
28 | – | > 10000 | – | O=c1c(Cl)c(NCCN2CCOCC2)cnn1-c1cc(Cl)cc(Cl)c1 [Compound 28, 4-Chloro-2-(3,5-dichlorophenyl)-5-(2-morpholin-4-ylethylamino)-pyridazin-3-one] | – | Increase
29 | > 10000 | > 10000 | – | Cc1ccc(C)c(-n2ncc(NCCN3CCOCC3)c(Cl)c2=O)c1 [Compound 29, 4-Chloro-2-(2,5-dimethylphenyl)-5-(2-morpholin-4-ylethylamino)-pyridazin-3-one] | – | –
30 | > 10000 | > 10000 | – | CCCNc1cnn(Cc2ccccc2)c(=O)c1Cl [Compound 30, 2-Benzyl-4-chloro-5-propylaminopyridazin-3-one] | – | –
31 | > 10000 | – | – | CCCNc1cnn(CC(C)(C)C)c(=O)c1Cl [Compound 33, 4-Chloro-2-(2,2-dimethylpropyl)-5-propylaminopyridazin-3-one] | – | –
32 | 2900 | 2040 | – | CN(C)CCn1cc2c(=O)n(C3CC(C)(C)CC(C)(C)C3)ncc2n1 [Compound 39, 2-(2-Dimethylaminoethyl)-5-(3,3,5,5-tetramethylcyclohexyl)pyrazolo[3,4-d]pyridazin-4-one] | – | –
